Measured values taken from patent publication US10512264B2, “Herbicidal mixtures” (Syngenta Participations AG, priority 2015, dated 2019).
Values joined by “and” are separate entries in the source; they are usually repeats but may differ in a detail not shown here. Equal values may be shown once.

Columns and labels:
Assay type in all cases: in vivo
Conditions in all cases: 21 days after application
[1] = test system: Euphorbia heterophylla (EPHHL); experiment: Herbicidal action, pre-emergence glasshouse test, Euphorbia heterophylla
Procedure: (§1) Seeds of a variety of test species were sown in standard soil in pots. After cultivation for one day (pre-emergence) under controlled conditions in a glasshouse (at 24/18° C., at day/night; 16 hours light; 65% humidity), the plants were sprayed with an aqueous spray solution derived from the formulation of the technical active ingredient dissolved in acetone plus formulation A containing 10.56 wt % Emulsogen EL, 42.22 wt % N-MethylPyrrolidon, 2.22 wt % DPG-Monoethyl ether at a 1:20 ratio (technical active ingredient:formulation A). To achieve the mixture treatments, the appropriate concentration of the mixture partner (commercial formulation) was added to the solution in order to achieve the desired experimental compound:mixture partner ratio).
(§2) After application, the test plants were grown in a glasshouse under controlled conditions (at 24/18° C. day/night; 16 hours light; 65% humidity) and watered twice daily. Herbicidal activity was evaluated 21 days after application in a 100-0 scale (100=total damage to plant; 0=no damage to plant).

Setaria fabarii (SETFA) = experiment: Herbicidal action, pre-emergence glasshouse test, Setaria fabarii
Procedure: as §1, §2

[2] = test system: Digitaria sanguinalis (DIGSA); experiment: Herbicidal action, pre-emergence glasshouse test, Digitaria sanguinalis
Procedure: as §1, §2

[3] = test system: Ambrosia artimisifolia (AMBEL); experiment: Herbicidal action, pre-emergence glasshouse test, Ambrosia artimisifolia
Procedure: as §1, §2

Ipomea purpurea (PHBPU) = experiment: Herbicidal action, pre-emergence glasshouse test, Ipomea purpurea
Procedure: as §1, §2

Bidens pilosa (BIDPI) = experiment: Herbicidal action, pre-emergence glasshouse test, Bidens pilosa
Procedure: as §1, §2

Row | Compound | Activity (% of untreated) Observed ([1]; applied alone at 100 g/ha) | Activity (% of untreated) Observed ([1]; applied alone at 250 g/ha) | Activity (% of untreated) Observed (Setaria fabarii (SETFA); alone 100 g/ha) | Activity (% of untreated) Observed (Setaria fabarii (SETFA); alone 250 g/ha) | Activity (% of untreated) Observed ([2]; alone 100 g/ha) | Activity (% of untreated) Observed ([2]; alone 250 g/ha) | Activity (% of untreated) Observed ([3]; applied alone at 100 g/ha) | Activity (% of untreated) Observed ([3]; applied alone at 250 g/ha) | Activity (% of untreated) Observed (Ipomea purpurea (PHBPU); applied alone at 100 g/ha) | Activity (% of untreated) Observed (Ipomea purpurea (PHBPU); applied alone at 250 g/ha) | Activity (% of untreated) Observed (Setaria fabarii (SETFA); alone 10 g/ha) | Activity (% of untreated) Observed (Setaria fabarii (SETFA); alone 50 g/ha) | Activity (% of untreated) Observed ([2]; alone 10 g/ha) | Activity (% of untreated) Observed ([2]; alone 50 g/ha) | Activity (% of untreated) Observed (Bidens pilosa (BIDPI); applied alone at 10 g/ha) | Activity (% of untreated) Observed (Bidens pilosa (BIDPI); applied alone at 25 g/ha) | Activity (% of untreated) Observed ([3]; applied alone at 10 g/ha) | Activity (% of untreated) Observed ([3]; applied alone at 50 g/ha) | Activity (% of untreated) Observed (Ipomea purpurea (PHBPU); applied alone at 25 g/ha) | Activity (% of untreated) Observed (Ipomea purpurea (PHBPU); applied alone at 50 g/ha) | also measured
1 | COC1=C(C)C(O)N(c2cc(C(C)(C)C)ncn2)C1=O (stereo not drawn) [Compound 1.1] | 12.5 % of untreated | 70 % of untreated | 0 % of untreated | 70 % of untreated | 0 % of untreated | 65 % of untreated | 37.5 % of untreated | 85 % of untreated | 0 % of untreated | 5 % of untreated | – | – | – | – | – | – | – | – | – | – | –
2 | COC1=C(C)C(O)N(c2cc(C(C)(C)C)on2)C1=O (stereo not drawn) [Compound 1.2] | 10 % of untreated | 80 % of untreated | 0 % of untreated | 72.5 % of untreated | 0 % of untreated | 5 % of untreated | 42.5 % of untreated | 92.5 % of untreated | 2.5 % of untreated | 35 % of untreated | – | – | – | – | – | – | – | – | – | – | Activity (% of untreated) Observed (Bidens pilosa (BIDPI); applied alone at 100 g/ha): 65 % of untreated; Activity (% of untreated) Observed (Bidens pilosa (BIDPI); applied alone at 250 g/ha): 85 % of untreated
3 | CC1=C(Cl)C(=O)N(c2cc(C(C)(C)C)on2)C1O (stereo not drawn) [Compound 1.3] | – | 87.5 % of untreated | – | – | – | 100 % of untreated | – | 86 % of untreated and 99 % of untreated | – | 85 % of untreated and 72.5 % of untreated | – | – | – | – | – | – | – | – | – | – | Activity (% of untreated) Observed ([1]; applied alone at 31.25 g/ha): 5 % of untreated; Activity (% of untreated) Observed ([1]; applied alone at 62.5 g/ha): 15 % of untreated; Activity (% of untreated) Observed ([1]; applied alone at 125 g/ha): 35 % of untreated; Activity (% of untreated) Observed ([1]; applied alone at 500 g/ha): 100 % of untreated; Activity (% of untreated) Observed (Setaria fabarii (SETFA); alone 31.25 g/ha): 90 % of untreated; Activity (% of untreated) Observed (Setaria fabarii (SETFA); alone 62.5 g/ha): 100 % of untreated; Activity (% of untreated) Observed ([2]; alone 31.25 g/ha): 0 % of untreated; Activity (% of untreated) Observed ([2]; alone 62.5 g/ha): 65 % of untreated; Activity (% of untreated) Observed ([2]; alone 125 g/ha): 99 % of untreated; Activity (% of untreated) Observed ([2]; alone 500 g/ha): 99.5 % of untreated and 99 % of untreated; Activity (% of untreated) Observed ([3]; applied alone at 31.25 g/ha): 85 % of untreated; Activity (% of untreated) Observed ([3]; applied alone at 62.5 g/ha): 97 % of untreated; Activity (% of untreated) Observed ([3]; applied alone at 125 g/ha): 85 % of untreated and 98.5 % of untreated; Activity (% of untreated) Observed ([3]; applied alone at 500 g/ha): 98.5 % of untreated and 99 % of untreated; Activity (% of untreated) Observed (Ipomea purpurea (PHBPU); applied alone at 31.25 g/ha): 67.5 % of untreated; Activity (% of untreated) Observed (Ipomea purpurea (PHBPU); applied alone at 62.5 g/ha): 97.5 % of untreated; Activity (% of untreated) Observed (Ipomea purpurea (PHBPU); applied alone at 125 g/ha): 40 % of untreated and 50 % of untreated; Activity (% of untreated) Observed (Ipomea purpurea (PHBPU); applied alone at 500 g/ha): 100 % of untreated and 90 % of untreated
4 | CS(=O)(=O)c1ccc(C(=O)C2C(=O)CCCC2=O)c([N+](=O)[O-])c1 [Mesotrione, reference compound] | – | – | 57.5 % of untreated | – | 0 % of untreated | – | 25 % of untreated | – | 50 % of untreated | – | 0 % of untreated | 35 % of untreated | 45 % of untreated | 5 % of untreated | 10 % of untreated | 30 % of untreated | 7.5 % of untreated | 12.5 % of untreated | 0 % of untreated | 0 % of untreated | –
5 | Bicyclopyrone [reference compound] | 100 % of untreated | – | 57.5 % of untreated | – | 0 % of untreated | – | 25 % of untreated | – | 50 % of untreated | – | 17.5 % of untreated | 35 % of untreated | 87.5 % of untreated | 5 % of untreated | 0 % of untreated | 5 % of untreated | 70 % of untreated | 12.5 % of untreated | 0 % of untreated | 0 % of untreated | Activity (% of untreated) Observed ([1]; applied alone at 10 g/ha): 32.5 % of untreated; Activity (% of untreated) Observed ([1]; applied alone at 25 g/ha): 77.5 % of untreated and 95 % of untreated; Activity (% of untreated) Observed ([1]; applied alone at 50 g/ha): 98.5 % of untreated; Activity (% of untreated) Observed (Ipomea purpurea (PHBPU); applied alone at 10 g/ha): 0 % of untreated
6 | S-Metolachlor | – | – | – | – | – | – | – | – | – | – | – | – | – | – | – | – | – | – | – | – | Activity (% of untreated) Observed (Setaria fabarii (SETFA); alone 80 g/ha): 85 % of untreated; Activity (% of untreated) Observed (Setaria fabarii (SETFA); alone 200 g/ha): 98.5 % of untreated; Activity (% of untreated) Observed ([2]; alone 80 g/ha): 65 % of untreated; Activity (% of untreated) Observed ([2]; alone 200 g/ha): 100 % of untreated
